Measurements reported in US20090318494A1, “PYRAZOLO[3,4-B]PYRIDINE COMPOUNDS, AND THEIR USE AS PDE4 INHIBITORS” (Glaxo Group Limited, priority 2006, published 2009).
Counter-ions that a name gives are not always drawn.

Assays:
COPD patients = conditions: cited from earlier work
[1] = test system: atopic dermatitis patients; conditions: cited from earlier work
[2] = target: T1, PDE4B (human recombinant) (Homo sapiens, UniProt Q07343); assay: Inhibition of PDE4B activity: IMAP Fluorescence Polarisation (FP) assay; assay type: biochemical; conditions: FP assay or generally similar assay; each limit ±about 0.5; n=1 or average of 2 or more readings; read-out: PDE4B inhibitory activities, pIC50 (converted)
T1 construct: made in house; host or cells: Saccharomyces cerevisiae strain GL62 (named as a possible source, as described in WO 94/20079)
Text: The ability of compounds to inhibit catalytic activity at PDE4B (human recombinant) or PDE4D (human recombinant) can optionally be determined by IMAP Fluorescence Polarisation (FP) assay (IMAP Explorer kit, available from Molecular Devices Corporation, Sunnydale, Calif., USA; Molecular Devices code: R8062) in 384-well format.
The IMAP FP assay is able to measure PDE activity in an homogenous, non-radioactive assay format. The FP assay uses the ability of immobilised trivalent metal cations, coated onto nanoparticles (tiny beads), to bind the phosphate group of Fl-AMP that is produced on the hydrolysis of fluorescein-labelled (Fl) cyclic adenosine mono-phosphate (Fl-cAMP) to the non-cyclic Fl-AMP form. […] Binding of Fl-AMP product to the beads (coated with the immobilised trivalent cations) slows the rotation of the bound Fl-AMP and leads to an increase in the fluorescence polarisation ratio of parallel to perpendicular light. Inhibition of the PDE reduces/inhibits this signal increase.
Test compounds (small volume, e.g. ca. 0.5 to 1 microlitres (ul), suitably ca. 0.5 ul, of solution in DMSO) are preincubated at ambient temperature (room temperature, e.g. 19-23° C.) in black 384-well microtitre plates (supplier: NUNC, code 262260) with PDE enzyme in 10 mM Tris-HCl buffer pH 7.2, 10 mM MgCl2, 0.1% (w/v) bovine serum albumin, and 0.05% NaN3 for 10-30 minutes. The enzyme level is set by experimentation so that reaction is linear throughout the incubation. Fluorescein adenosine 3′,5′-cyclic phosphate (from Molecular Devices Corporation, Molecular Devices code: R7091) is added to give about 40 nM final concentration (final assay volume usually ca. 20-40 ul, suitably ca. 20 ul). Plates are mixed on an orbital shaker for 10 seconds and incubated at ambient temperature for 40 minutes. IMAP binding reagent (as described above, from Molecular Devices Corporation, Molecular Devices code: R7207) is added (60 ul of a 1 in 400 dilution in binding buffer of the kit stock solution) to terminate the assay. Plates are allowed to stand at ambient temperature for 1 hour. The Fluorescence Polarisation (FP) ratio of parallel to perpendicular light is measured using an Analyst™ plate reader (from Molecular Devices Corporation). For inhibition curves, 10 concentrations (e.g. 1.5 nM-30 uM) of each compound are assayed. Curves are analysed using ActivityBase and XLfit (ID Business Solutions Limited, 2 Ocean Court, Surrey Research Park, Guildford, Surrey GU2 7QB, United Kingdom). Results are expressed as pIC50 values.
In the FP assay, reagents can be dispensed using Multidrop™ (available from Thermo Labsystems Oy, Ratastie 2, PO Box 100, Vantaa 01620, Finland).

T1 sequence (Q07343 1-564 isoform Q07343-2): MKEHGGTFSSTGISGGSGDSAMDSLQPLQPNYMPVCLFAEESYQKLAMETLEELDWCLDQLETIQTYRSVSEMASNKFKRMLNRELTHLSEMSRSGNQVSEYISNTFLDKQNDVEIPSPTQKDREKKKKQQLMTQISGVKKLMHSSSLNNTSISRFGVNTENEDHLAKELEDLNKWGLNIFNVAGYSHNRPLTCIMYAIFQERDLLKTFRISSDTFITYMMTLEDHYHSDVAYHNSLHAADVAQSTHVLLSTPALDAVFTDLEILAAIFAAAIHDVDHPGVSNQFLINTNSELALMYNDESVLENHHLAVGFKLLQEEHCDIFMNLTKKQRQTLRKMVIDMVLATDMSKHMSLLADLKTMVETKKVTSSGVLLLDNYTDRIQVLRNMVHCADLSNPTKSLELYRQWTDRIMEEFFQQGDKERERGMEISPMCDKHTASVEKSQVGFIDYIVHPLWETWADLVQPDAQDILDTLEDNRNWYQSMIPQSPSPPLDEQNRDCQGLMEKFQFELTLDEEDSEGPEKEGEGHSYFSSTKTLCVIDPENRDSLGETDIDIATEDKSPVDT

## O=C(Nc1c(Cl)cncc1Cl)c1ccc(OC(F)F)c(OCC2CC2)c1 [roflumilast]
COPD patients
  FEV1 in COPD patients: appears to show small improvements in FEV1

## Nc1nc2c([nH]1)c(=O)n(CC1CC1)c(=O)n2CC1CC1 [cipamfylline]
[1]; 0.15% cream
  efficacy in the treatment of atopic dermatitis patients versus hydrocortisone 17-butyrate (0.1%) cream: significantly less effective than hydrocortisone 17-butyrate (0.1%) cream
  efficacy in the treatment of atopic dermatitis patients versus vehicle: significantly more effective than vehicle

## CCc1nc2c(cnn2CC)c(NC2CCOCC2)c1CNC(=O)CCCCCCCN1CCC[C@@H]1COC [Example 15, N-{[1,6-diethyl-4-(tetrahydro-2H-pyran-4-ylamino)-1H-pyrazolo[3,4-b]pyridin-5-yl]methyl}-8-{(2R)-2-[(methyloxy)methyl]-1-pyrrolidinyl}octanamide trifluoroacetate]
[2]
  IC50: 0.2 to 1.58 nM

## COc1ccc([C@]2(C#N)CC[C@@H](C(=O)O)CC2)cc1OC1CCCC1 [cilomilast]
COPD patients; 15 mg orally twice daily
  forced expiratory volume in 1s (FEV1): appears to improve forced expiratory volume in 1s (FEV1)
COPD patients
  antiinflammatory effects in COPD patients: appears to have antiinflammatory effects

## CCc1nc2c(cnn2CC)c(NC2CCOCC2)c1CNC(=O)CCCCCCCN1CCC[C@H]1COC [Example 16, N-{[1,6-diethyl-4-(tetrahydro-2H-pyran-4-ylamino)-1H-pyrazolo[3,4-b]pyridin-5-yl]methyl}-8-{(2S)-2-[(methyloxy)methyl]-1-pyrrolidinyl}octanamide trifluoroacetate]
[2]
  IC50: 0.2 to 1.58 nM

## CCc1nc2c(cnn2CC)c(NC2CCN(C(N)=O)CC2)c1CNC(=O)CCCCCCCN1CCC[C@@H]1COC [Example 7, 4-[(1,6-diethyl-5-{[(8-{(2R)-2-[(methyloxy)methyl]-1-pyrrolidinyl}octanoyl)amino]methyl}-1H-pyrazolo[3,4-b]pyridin-4-yl)amino]-1-piperidinecarboxamide trifluoroacetate]
[2]
  IC50: 0.2 to 1.58 nM

## COc1ccc(C2CNC(=O)NC2)cc1O[C@H]1C[C@@H]2CC[C@H]1C2 [CP80,633]
[1]; 0.5% ointment, twice daily topical application
  inflammatory parameters in atopic dermatitis patients: reductions of inflammatory parameters

## CCc1nc2c(cnn2CC)c(NC2CCN(C(N)=O)CC2)c1CNC(=O)CCCCCCCN1CCC[C@H]1COC [Example 8, 4-[(1,6-diethyl-5-{[(8-{(2S)-2-[(methyloxy)methyl]-1-pyrrolidinyl}octanoyl)amino]methyl}-1H-pyrazolo[3,4-b]pyridin-4-yl)amino]-1-piperidinecarboxamide trifluoroacetate]
[2]
  IC50: 0.2 to 1.58 nM
